Source: PubChem BioAssay AID192 (DTP/NCI, 2004)
“And” between values parts separate entries of the source, which are not always exact repeats. Equal values may be shown once. Inconclusive results and toxic doses are left out.

Tested on: BDF1 mice, B16 melanoma ip, median survival T/C
Assay: NCI In Vivo Anticancer Drug Screen. Data for tumor model B16 Melanoma (intraperitoneal) in B6D2F1 (BDF1) mice
Settings: endpoint: median survival time, higher = longer survival
How it was run: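 Each result divides a survival or tumor-size measurement in the compound-treated group by the same measurement in the vehicle group.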

[1] = dose: 200.0 mg/kg/injection, schedule: Q01DX009 (ip), vehicle: saline with Tween-80
[2] = dose: 25.0 mg/kg/injection, schedule: Q01DX009 (ip), vehicle: saline
[3] = dose: 50.0 mg/kg/injection, schedule: Q01DX009 (ip), vehicle: saline with Tween-80
[4] = dose: 100.0 mg/kg/injection, schedule: Q01DX009 (ip), vehicle: saline with Tween-80
[5] = dose: 25.0 mg/kg/injection, schedule: Q01DX009 (ip), vehicle: Klucel (hydroxypropylcellulose) (HPC)
[6] = dose: 50.0 mg/kg/injection, schedule: Q01DX009 (ip), vehicle: Klucel (hydroxypropylcellulose) (HPC)
[7] = dose: 12.5 mg/kg/injection, schedule: Q01DX009 (ip), vehicle: Klucel (hydroxypropylcellulose) (HPC)
[8] = dose: 100.0 mg/kg/injection, schedule: Q01DX009 (ip), vehicle: Klucel (hydroxypropylcellulose) (HPC)

**Q.** How did the T/C (dose: 2.5 mg/kg/injection, schedule: Q01DX007 (ip), vehicle: water) turn out when COc1cccc2c1C(=O)c1c(O)c3c(c(O)c1C2=O)CC(O)(C(C)=O)CC3OC1CC(N)C(O)C(C)O1 (configuration not stated) was run?
**A.** 154 % of control

**Q.** And the T/C (dose: 2.5 mg/kg/injection, schedule: Q01DX009 (ip), vehicle: water)?
**A.** 163 % of control

**Q.** And the T/C (dose: 5.0 mg/kg/injection, schedule: Q01DX007 (ip), vehicle: water)?
**A.** 154 % of control

**Q.** What about the T/C (dose: 5.0 mg/kg/injection, schedule: Q01DX009 (ip), vehicle: water) of the same compound?
**A.** 190 % of control

**Q.** And the T/C (dose: 5.8 mg/kg/injection, schedule: Q01DX009 (ip), vehicle: saline)?
**A.** 258 % of control

**Q.** What about the T/C (dose: 10.0 mg/kg/injection, schedule: Q01DX007 (ip), vehicle: water) of the same compound?
**A.** 163 % of control

**Q.** And the T/C (dose: 10.0 mg/kg/injection, schedule: Q01DX009 (ip), vehicle: water)?
**A.** 218 % of control

**Q.** And the T/C (dose: 11.7 mg/kg/injection, schedule: Q01DX009 (ip), vehicle: saline)?
**A.** 122 % of control and 267 % of control

**Q.** And the T/C (dose: 20.0 mg/kg/injection, schedule: Q01DX007 (ip), vehicle: water)?
**A.** 339 % of control

**Q.** And the T/C (dose: 20.0 mg/kg/injection, schedule: Q01DX009 (ip), vehicle: water)?
**A.** 231 % of control

**Q.** And the T/C (dose: 23.4 mg/kg/injection, schedule: Q01DX009 (ip), vehicle: saline)?
**A.** 116 % of control and 267 % of control

**Q.** And the T/C (dose: 23.4 mg/kg/injection, schedule: Q04DX003 (ip), vehicle: saline)?
**A.** 212 % of control

**Q.** What about the T/C (dose: 46.8 mg/kg/injection, schedule: Q04DX003 (ip), vehicle: saline) of the same compound?
**A.** 275 % of control

**Q.** And the T/C (dose: 93.6 mg/kg/injection, schedule: Q04DX003 (ip), vehicle: saline)?
**A.** 275 % of control

**Q.** CS(=O)(=O)c1nnc(-c2ccccc2)s1 was tested. Which T/C (dose: 100.0 mg/kg/injection, schedule: Q01DX009 (ip), vehicle: carboxymethylcellulose (CMC)) did it give?
**A.** 111 % of control

**Q.** And the T/C (dose: 200.0 mg/kg/injection, schedule: Q01DX009 (ip), vehicle: carboxymethylcellulose (CMC))?
**A.** 102 % of control

**Q.** Which T/C [1] does the source give for Clc1cccc(/C=C2\c3cc(Cl)ccc3-c3c(Cl)cc(Cl)cc32)c1 here?
**A.** 100 % of control

**Q.** What about the T/C (dose: 400.0 mg/kg/injection, schedule: Q01DX009 (ip), vehicle: saline with Tween-80) of the same compound?
**A.** 97 % of control

**Q.** And the T/C (dose: 800.0 mg/kg/injection, schedule: Q01DX009 (ip), vehicle: saline with Tween-80)?
**A.** 93 % of control

**Q.** Which T/C (dose: 1.56 mg/kg/injection, schedule: Q01DX009 (ip), vehicle: saline) does the source give for O=C1NC(c2ccccc2)C(=O)N1CCN(CCCl)CCCl (configuration not stated) here?
**A.** 89 % of control and 109 % of control

**Q.** And the T/C (dose: 3.12 mg/kg/injection, schedule: Q01DX009 (ip), vehicle: saline)?
**A.** 95 % of control and 114 % of control

**Q.** What about the T/C (dose: 6.25 mg/kg/injection, schedule: Q01DX009 (ip), vehicle: saline) of the same compound?
**A.** 123 % of control

**Q.** And the T/C [2]?
**A.** 115 % of control

**Q.** What does the source list for COC(=O)C(Cl)(Cl)N=Nc1c(Cl)cc(Cl)c(C)c1Cl?
**A.** T/C (dose: 12.5 mg/kg/injection, schedule: Q01DX009 (ip), vehicle: saline with Tween-80): 112 % of control; T/C (dose: 25.0 mg/kg/injection, schedule: Q01DX009 (ip), vehicle: saline with Tween-80): 106 % of control; T/C [3]: 111 % of control; T/C [4]: 99 % of control; T/C [1]: 97 % of control

**Q.** For ClC(Cl)(Cl)C(Nc1ccccc1)Nc1ccccc1, which T/C (dose: 6.25 mg/kg/injection, schedule: Q01DX009 (ip), vehicle: Klucel (hydroxypropylcellulose) (HPC)) is on record?
**A.** 89 % of control

**Q.** What about the T/C [5] of the same compound?
**A.** 86 % of control

**Q.** How did the T/C [5] turn out when C1CC[N-]CC1.CC(=N\O)/C(C)=N/O.CC(=N\O)/C(C)=N/O.[CH2-]C.[Co+2] was run?
**A.** 111 % of control

**Q.** And the T/C [6]?
**A.** 102 % of control

**Q.** Which T/C (dose: 12.5 mg/kg/injection, schedule: Q04DX003 (ip), vehicle: Klucel (hydroxypropylcellulose) (HPC)) does the source give for c1ccc2c(c1)OCCOCCOc1ccccc1OCCOCCO2 here?
**A.** 93 % of control

**Q.** What about the T/C (dose: 25.0 mg/kg/injection, schedule: Q04DX003 (ip), vehicle: Klucel (hydroxypropylcellulose) (HPC)) of the same compound?
**A.** 88 % of control

**Q.** What about the T/C (dose: 50.0 mg/kg/injection, schedule: Q04DX003 (ip), vehicle: Klucel (hydroxypropylcellulose) (HPC)) of the same compound?
**A.** 86 % of control

**Q.** How did the T/C [7] turn out when COC(=O)c1ccc(-c2ccccc2)cc1 was run?
**A.** 93 % of control

**Q.** And the T/C [5]?
**A.** 88 % of control

**Q.** And the T/C [6]?
**A.** 97 % of control

**Q.** What about the T/C [8] of the same compound?
**A.** 93 % of control

**Q.** How did the T/C [7] turn out when NC(=O)OCCCc1ccccc1 was run?
**A.** 100 % of control

**Q.** What about the T/C [5] of the same compound?
**A.** 94 % of control

**Q.** What about the T/C [6] of the same compound?
**A.** 100 % of control

**Q.** And the T/C [8]?
**A.** 107 % of control

**Q.** Which results are given for CC(C)N(CCCO)C(C)C?
**A.** T/C [3]: 101 % of control; T/C [4]: 97 % of control

**Q.** With O=C1C=CN(C2OC(CO)C(O)C2O)C(=O)C1 (configuration not stated) as the compound, how does the T/C (dose: 12.5 mg/kg/injection, schedule: Q01DX009 (ip), vehicle: saline) read?
**A.** 104 % of control

**Q.** And the T/C [2]?
**A.** 104 % of control

**Q.** What about the T/C (dose: 50.0 mg/kg/injection, schedule: Q01DX009 (ip), vehicle: saline sonified) of the same compound?
**A.** 100 % of control

**Q.** What about the T/C (dose: 50.0 mg/kg/injection, schedule: Q01DX009 (ip), vehicle: saline) of the same compound?
**A.** 119 % of control

**Q.** And the T/C (dose: 100.0 mg/kg/injection, schedule: Q01DX009 (ip), vehicle: saline sonified)?
**A.** 86 % of control

**Q.** What about the T/C (dose: 100.0 mg/kg/injection, schedule: Q01DX009 (ip), vehicle: saline) of the same compound?
**A.** 118 % of control

**Q.** And the T/C (dose: 200.0 mg/kg/injection, schedule: Q01DX009 (ip), vehicle: saline sonified)?
**A.** 89 % of control

**Q.** For CCC[N+](CCC)=c1ccc2nc3c(C)cc(N(CC)CC)cc3sc-2c1, which T/C (dose: 0.15 mg/kg/injection, schedule: Q01DX009 (ip), vehicle: saline) is on record?
**A.** 102 % of control

**Q.** And the T/C (dose: 0.3 mg/kg/injection, schedule: Q01DX009 (ip), vehicle: saline)?
**A.** 102 % of control

**Q.** What about the T/C (dose: 0.6 mg/kg/injection, schedule: Q01DX009 (ip), vehicle: saline with Tween-80) of the same compound?
**A.** 92 % of control

**Q.** And the T/C (dose: 0.6 mg/kg/injection, schedule: Q01DX009 (ip), vehicle: saline)?
**A.** 102 % of control

**Q.** And the T/C (dose: 1.2 mg/kg/injection, schedule: Q01DX009 (ip), vehicle: saline)?
**A.** 105 % of control
